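The compound was tested at five concentrations on cells cultured in 96-well plates, with a 48-hour exposure period. GI50 = concentration required for 50% inhibition of growth. TGI denotes the concentration required for complete inhibition of growth.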 Where only a bound is given, the exact number is not on record here.

The text below walks through data of PubChem BioAssay (NCI).

Among the test systems are MALME-3M melanoma; MCF7 breast; SF-295 CNS; SF-539 CNS; SF-268 CNS; SK-MEL-5 melanoma; ACHN renal; SK-MEL-2 melanoma; HOP-62 NSCLC; PC-3 prostate.
Holding throughout (assay): NCI anticancer screen, dose series, 48 h

As to `C=C1C(=O)O[C@H]2[C@H]1CC/C(COC(=O)c1cc3cc(OC)ccc3[nH]1)=C\CC[C@@]1(C)O[C@@H]21`, the GI50 with MALME-3M melanoma was 1.61 µM; in the test on MCF7 breast, 0.341 µM; in the test with SF-295 CNS, 2.42 µM; with SF-539 CNS, 1.02 µM; in the test on SF-268 CNS, 1.66 µM; in the test with SK-MEL-5 melanoma it was 1.74 µM. The GI50 with ACHN renal is 0.817 µM; in the test on SK-MEL-2 melanoma, 1.6 µM; in the test with HOP-62 NSCLC it was 1.64 µM; with PC-3 prostate it was 1.83 µM. Besides, the TGI is 3.14 µM in the test with MALME-3M melanoma; 1.74 µM in the test on MCF7 breast; 10.8 µM in the test on SF-295 CNS; 2.25 µM in the test on SF-539 CNS; 3.65 µM in the test on SF-268 CNS; 3.17 µM with SK-MEL-5 melanoma. Further, the TGI in the test with ACHN renal was determined as 2.12 µM; in the test with SK-MEL-2 melanoma, 3.05 µM; in the test with HOP-62 NSCLC it was 3.29 µM; with PC-3 prostate, 3.65 µM.
Consider `COc1ccc(C2C(C#N)=C(N)OC3=C2CCCc2ccc(F)cc23)cc1OC` (stereo not given), for which the GI50 was 18.5 µM in the test with MALME-3M melanoma; 28.1 µM with MCF7 breast; 33.2 µM in the test on SF-295 CNS; 16.6 µM in the test on SF-539 CNS; 20.1 µM in the test with SF-268 CNS; 14.7 µM in the test with SK-MEL-5 melanoma. In addition, the GI50 was 19.9 µM with ACHN renal, 21.2 µM with SK-MEL-2 melanoma, 21.5 µM in the test with HOP-62 NSCLC and 19.5 µM with PC-3 prostate. Besides, the TGI in the test on MALME-3M melanoma is 40 µM; in the test on MCF7 breast, above 77.7 µM; in the test with SF-295 CNS, above 57.3 µM; in the test on SF-539 CNS it was 32.2 µM; in the test with SF-268 CNS it was 48.5 µM; in the test with SK-MEL-5 melanoma, 27.9 µM. Also, the TGI with ACHN renal turned out to be 41.7 µM; with SK-MEL-2 melanoma, 57.9 µM; in the test on HOP-62 NSCLC, 42.3 µM; in the test on PC-3 prostate, 38.8 µM.
`Cc1noc(C)c1-c1ccc2[nH]c(=O)n3c2c1OC[C@@H]3c1ccccn1`: the GI50 in the test with MALME-3M melanoma was 1 µM; with MCF7 breast, 0.329 µM; with SF-295 CNS, 1.84 µM; in the test on SF-539 CNS it was 2.05 µM; in the test with SF-268 CNS it was above 100 µM; with SK-MEL-5 melanoma, 3.81 µM. Further, the GI50 is 1.5 µM in the test with ACHN renal, above 89.5 µM with SK-MEL-2 melanoma, 0.482 µM with HOP-62 NSCLC and 2.88 µM in the test on PC-3 prostate. The TGI in the test on MALME-3M melanoma, in the test with MCF7 breast, in the test on SF-295 CNS, with SF-539 CNS, in the test with SF-268 CNS and in the test with SK-MEL-5 melanoma was above 100 µM in each case. Also, the TGI in the test with ACHN renal, in the test on SK-MEL-2 melanoma, in the test with HOP-62 NSCLC and with PC-3 prostate was above 100 µM in each case.
Take `CN(C)CCNC(=O)Nc1c(C#N)[n+]([O-])c2cc(Cl)c(Cl)cc2[n+]1[O-]`: the GI50 with MALME-3M melanoma was 21.6 µM; in the test on MCF7 breast, 18.5 µM; in the test on SF-295 CNS it was 15 µM; in the test on SF-539 CNS it was 18.9 µM; with SF-268 CNS, 9.47 µM; in the test with SK-MEL-5 melanoma, 14.3 µM. In addition, the GI50 is 32.9 µM in the test with ACHN renal, 15.9 µM in the test on SK-MEL-2 melanoma, 34.2 µM in the test on HOP-62 NSCLC and 18.4 µM in the test with PC-3 prostate. Also, the TGI was above 100 µM with MALME-3M melanoma; above 100 µM with MCF7 breast; 84.8 µM with SF-295 CNS; 47.3 µM in the test with SF-539 CNS; above 100 µM in the test with SF-268 CNS; 38.1 µM in the test with SK-MEL-5 melanoma. Besides, the TGI in the test on ACHN renal is above 100 µM; in the test on SK-MEL-2 melanoma, 50.6 µM; in the test on HOP-62 NSCLC, above 100 µM; with PC-3 prostate, above 100 µM.
As to `CCCCCCNc1nc(NCCCCCC)c2[nH]c(NCCCCCC)nc2n1`, the GI50 in the test on MALME-3M melanoma was 4.5 µM; in the test on MCF7 breast it was 3.22 µM; in the test on SF-295 CNS, 12.8 µM; in the test on SF-539 CNS, 7.39 µM; in the test with SF-268 CNS, 4.36 µM; in the test with SK-MEL-5 melanoma, 12.7 µM. The GI50 in the test on ACHN renal was 15 µM; with SK-MEL-2 melanoma, 11.5 µM; in the test with HOP-62 NSCLC, 18.5 µM; in the test on PC-3 prostate, 9.14 µM. The TGI in the test on MALME-3M melanoma amounted to 16.1 µM; in the test on MCF7 breast, 15.8 µM; in the test with SF-295 CNS, 31.3 µM; with SF-539 CNS, 21.1 µM; in the test on SF-268 CNS, 15.5 µM; in the test on SK-MEL-5 melanoma, 25.2 µM. Besides, the TGI in the test with ACHN renal stood at 37.8 µM; in the test with SK-MEL-2 melanoma, 28.7 µM; in the test with HOP-62 NSCLC it was 33 µM; with PC-3 prostate it was 28.9 µM.
For `C=CC(=O)N1CCN(c2ncnc3c(F)c(-c4c(O)cccc4F)c(Cl)cc23)CC1`, the GI50 in the test with MALME-3M melanoma is 11.5 µM; in the test on MCF7 breast it was 9.68 µM; in the test on SF-295 CNS, 15.2 µM; in the test with SF-539 CNS, 7.48 µM; with SF-268 CNS it was 11.5 µM; in the test with SK-MEL-5 melanoma, 13.6 µM. For the same compound, the GI50 in the test on ACHN renal was 4.84 µM; in the test with SK-MEL-2 melanoma it was 15 µM; in the test on HOP-62 NSCLC it was 0.211 µM; in the test with PC-3 prostate, 7.29 µM. Further, the TGI came to 24.8 µM with MALME-3M melanoma; 29.3 µM in the test with MCF7 breast; 35.3 µM with SF-295 CNS; 20.5 µM in the test on SF-539 CNS; 37.2 µM in the test on SF-268 CNS; 26.5 µM in the test with SK-MEL-5 melanoma. For the same compound, the TGI was found to be 17.7 µM in the test on ACHN renal, 35 µM with SK-MEL-2 melanoma, 20.7 µM in the test with HOP-62 NSCLC and 30.3 µM with PC-3 prostate.
On to `COC(=O)NC/C=C\c1nc(CC/C=C\C(=O)OC2CC3CC(=O)O[C@@H](/C=C/CC(C)C)C[C@@H]4CCC(C)C(C[C@@H](OC)CC(C2)O3)O4)co1` (stereo not given in full), for which the GI50 with MALME-3M melanoma was 25.5 µM; in the test on MCF7 breast, below 0.01 µM; with SF-295 CNS, below 0.01 µM; in the test on SF-539 CNS, below 0.01 µM; with SF-268 CNS, below 0.01 µM; in the test with SK-MEL-5 melanoma, below 0.01 µM. Moreover, the GI50 in the test with ACHN renal was below 0.01 µM; in the test on SK-MEL-2 melanoma, 12.8 µM; with HOP-62 NSCLC, below 0.01 µM; with PC-3 prostate, below 0.01 µM. The TGI with MALME-3M melanoma is 93.4 µM; in the test with MCF7 breast, above 100 µM; in the test with SF-295 CNS it was 73.8 µM; in the test on SF-539 CNS it was 38.3 µM; in the test with SF-268 CNS it was 84 µM; in the test on SK-MEL-5 melanoma, 19 µM. The TGI is above 100 µM with ACHN renal, 94.1 µM in the test with SK-MEL-2 melanoma, 79 µM in the test on HOP-62 NSCLC and above 100 µM in the test on PC-3 prostate.
